# Measurements taken from patent EP2433624B1, “Use of buparvaquone for controlling mites parasitising honeybees” (Bimeda International Pharmaceuticals Limited, priority 2010, dated 2012).
# Columns and labels:
# [1] = test system: adult honeybees (Apis mellifera); test: Toxicity of BPQ A to honeybees when fed in a sugar syrup solution (hoarding cages, 16 days); format: in vivo; conditions: summary statement over all the studies
# Protocol: We have assessed the toxicity of BPQ to adult honeybees (Apis mellifera) using the 50 mg/mL liquid solution, BPQ A, under laboratory conditions
# Example 1 - Toxicity of BPQ A to honeybees when fed in a sugar syrup solution (50mL liquid at a concentration of 50mg BPQ/mL)
# Hoarding cages consisted of plastic tumblers (600mL) with an opening diameter of 84mm. The tumblers were paired with standard plastic petri-dishes and glass scintillation vials. To allow sufficient ventilation, 33 holes, approximately 3mm in diameter were made in the sides of each tumbler, in addition to two 30mm x 30mm holes fitted with nylon mesh. A circular hole was cut out of the bottom of the cup, which produced an opening large enough to allow a lidded scintillation vial to pass through the hole. Two holes were drilled into the lids of the scintillation vials with a 1mm bit and these vials were filled a 1:1 sugar solution, together with different concentrations of the solvent and product. […]
# Three replicates were analysed at each concentration of BPQ A and solvent as outlined below, together with a control group which were only fed sugar and water throughout the experimental period.
# Bees were maintained for 16 days at 32°C. Bees were fed additional food as required throughout the experimental period and the general behaviour and survival of the test bees were recorded on a daily basis. […]
# Varroa mites = test: Efficacy of BPQ B against Varroa mites on honeybees fed treated sucrose solution; format: in vivo; conditions: summary statement
# Protocol: Example 6 - Toxicity of BPQ B to Varroa mites on honeybees when fed treated sucrose solution
# To estimate the percentage efficacy of BPQ at different concentrations in sucrose solution
# A total of 20 newly emerged Varroa infested bees were placed in hoarding cages. The cages were prepared as described in Section 1.0, except that the air vents were reduced in size using parafilm to prevent the Varroa mites escaping during the test period. The mean(±se) number of mites per 20 bees was estimated prior to commencement of the experiment and an additional 5 mites per cage were added. (mean±se = 10.6±0.33). This was carried out by collecting adult female mite from drone pupae, placing them in an eppendorf tube and then releasing them into the cages.
# The treatment solution was made by dissolving BPQ B in solvent, followed by two aqueous serial dilutions producing a concentration of 500µg/mL and 5 µg/mL. From the latter, further serial dilutions were carried with sucrose solution producing the following concentrations: • 0.5µg/mL. (C1-C3) • 0.05µg/mL. (D1-D3) • 0.005µg/mL. (E1-E3) • 0.0005µg/mL. (F1-F3) • 0.00005µg/mL (G1-G3)
# Three replicates were established at each concentration plus a control group which were only fed sugar syrup. All cages were placed in the incubator at 32°C and monitored on a daily basis for the number of mites and number of bees knocked down. At the end of five day treatment period, the percentage efficacy of the treatment was estimated by treating bees in all cages with Apistan (Trade Mark of Vita (Europe) Ltd. Apistan contains fluvalinate which is a synthetic pyrethroid. % efficacy = mites knocked from treatment/total mites (treatment+Apistan)*100 [formula]
compound,measurement,setting,value
"CC(C)(C)[C@H]1CC[C@H](CC2=C(O)C(=O)c3ccccc3C2=O)CC1 [BPQ, buparvaquone]",harm to adult bees and larvae,[1],harmless
same,"effective, application via bee feed route",Varroa mites,82%
